Columns and labels:
[1] = tested on: orexin/ataxin 3 mice (Tg mice); assay: Test Example 4: alertness effect and cataplexy-like behavior inhibiting effect by dark period oral administration to orexin/ataxin 3 mice; format: in vivo, mouse; conditions: for sleep latency: before lights off, solvent 0.21 hour; for DREM latency: solvent 1.16 hours, assessed up to maximum 4 hours
Excerpt: The experimental animals used were orexin/ataxin 3 mice (orexin/ataxin-3 Tg/+ (hereunder referred to as “Tg mice”), Hara et al., Neuron, 30, 345-54, 2001) with a C57BL/6 genetic background, with wild type mice (hereunder referred to as “WT mice”) of the same litter as the control. Electroencephalogram and electromyogram measuring electrodes were surgically embedded into 12-week-old mice (+2 weeks) under isoflurane anesthesia. After surgery, and following conditioning to the illumination cycle and experimentation procedure, electroencephalogram and electromyogram measurement were carried out and mice with proper electroencephalogram and electromyogram recording were supplied for the experiment. The solvent (0 mg/kg) or a specimen (solution of compound (I) dissolved in the solvent (0.3, 1 or 3 mg/kg)) was orally administered 30 to 15 minutes before lighting was turned off. The solvent used was a 0.1 mol/L hydrochloric acid solution containing 5% (v/v) DMSO and 5% (v/v) Kolliphor^R EL. The electroencephalogram and electromyogram were recorded for about 24 hours, from 1 hour before lighting was turned off. The mice were repeatedly used, with a washout period of 2 days or longer. The electroencephalogram and electromyogram data obtained for each mouse were used to assess the sleep stage every epoch (10 seconds), using sleep analysis software (SleepSign: Kissei Comtec Co., Ltd.), up to a maximum of 4 hours. For the purpose of this experiment, cataplexy-like symptoms were defined as REM sleep appearing immediately after wakefulness (direct transitions from wake to REM sleep (DREM)) for a contiguous period of 4 epochs or longer. DREM in mice is an analog of cataplexy (Exp Neurol. 2009:217:46-54). The time until initial sleep appeared after lighting out for each mouse (sleep for contiguous 8 epochs or longer, excluding DREM) (sleep latency) and the time until initial DREM appeared (DREM latency) were measured. The numbers of mice were 8 in the solvent-administered group and 14 in the compound (I)-administered group. The sleep latency in a disease control group and a compound (I)-administered group were compared by a Dunnet-type multiple comparison test following survival time analysis in consideration of the number of experiments and use of the same individuals, with a significance level of 5% at both ends for each. The DREM latency in the normal control group and disease control group were compared by survival time analysis in consideration of the number of experiments and use of the same individuals. Cases with significance in the statistical test for the disease control group and the compound (I)-administered group were compared by a Dunnet-type multiple comparison test following survival time analysis in consideration of the number of experiments and use of the same individuals, with a significance level of 5% at both ends for each.

[2] = tested on: C57BL/6 line wild type (WT) male mice; assay: Test Example 3: alertness effect (sleep latency, EEG/EMG) by dark period oral administration to wild type mice; format: in vivo, mouse; conditions: before lights off, solvent 0.23 hour
Procedure: The experimental animals used were C57BL/6 line wild type (WT) male mice. Electroencephalogram and electromyogram measuring electrodes were surgically embedded into 13-week-old mice under isoflurane anesthesia. After surgery, and following conditioning to the illumination cycle and experimentation procedure, electroencephalogram and electromyogram measurement were carried out and mice with proper electroencephalogram and electromyogram recordings were supplied for the experiment. The solvent (0 mg/kg) or a solution of compound (I) dissolved in the solvent (1, 3 or 10 mg/kg) was orally administered 30 to 15 minutes before lighting was turned off. The solvent used was a 0.1 mol/L hydrochloric acid solution containing 5% (v/v) DMSO and 5% (v/v) Kolliphor^R EL. The electroencephalogram and electromyogram were recorded for about 24 hours, from 1 hour before lighting was turned off. The mice were repeatedly used, with a washout period of 2 days or longer. The electroencephalogram and electromyogram data obtained for each mouse were used to assess the sleep stage every epoch (10 seconds), using sleep analysis software (SleepSign: Kissei Comtec Co., Ltd.). […] Using 16 mice in each administered group, the sleep latency in a solvent-administered group (control group) and a compound (I)-administered group were compared by a Dunnet-type multiple comparison test following survival time analysis in consideration of the number of experiments and use of the same individuals, with a significance level of 5% at both ends for each.

Male C57BL/6NCrl mice = assay: Test Example 2: increase in spontaneous movement; format: in vivo, mouse; conditions: 10 mg/kg orally, measured 2 hours after administration, control group = 100%
Procedure: Increased movement in mice is an indicator of increased alertness time, higher body temperature and augmented cardiovascular parameters, as well as heightened alertness. In this test example, the alertness effect was evaluated by measuring spontaneous movement of the mice. Male C57BL/6NCrl mice (18-19 weeks old, Charles River Laboratories, Japan Inc., 4 mice in each group) were used for the experiment. Spontaneous movement was measured by using a movement measuring device (VersaMax Open Field, AccuScan Instruments, Inc.), irradiating infrared rays from the side sections of the measuring cage, and quantifying the number of times that the mice passed through the irradiated rays. After placing the mice in the measuring cage and conditioning for 3 hours, compound (I) was orally administered (10 mg/kg). Spontaneous movement was measured 2 hours after administration. The mice in the compound (I)-administered group were administered a solution of compound (I) dissolved in 0.1 mol/L hydrochloric acid containing 5% (v/v) DMSO and 5% (v/v) Kolliphor^R EL. For the control group, solvent alone without compound (I) was administered to the mice.
Spontaneous movement was represented as a percentage for the compound (I)-administered group, with spontaneous movement in the control group as 100%.

hOX1R = biological target: T1, hOX1R (Homo sapiens, UniProt O43613); assay: Test Example 1-1: activating activity for OX1R (intracellular calcium, HEK293 with forced expression); format: cell-based; conditions: calcium fluorescence, 3×10^-10 M to 1×10^-7 M, 10 nM OX-A as 100%
T1 construct: expressed in transfected cells; host or cells: HEK293
T1 sequence (O43613 1-425): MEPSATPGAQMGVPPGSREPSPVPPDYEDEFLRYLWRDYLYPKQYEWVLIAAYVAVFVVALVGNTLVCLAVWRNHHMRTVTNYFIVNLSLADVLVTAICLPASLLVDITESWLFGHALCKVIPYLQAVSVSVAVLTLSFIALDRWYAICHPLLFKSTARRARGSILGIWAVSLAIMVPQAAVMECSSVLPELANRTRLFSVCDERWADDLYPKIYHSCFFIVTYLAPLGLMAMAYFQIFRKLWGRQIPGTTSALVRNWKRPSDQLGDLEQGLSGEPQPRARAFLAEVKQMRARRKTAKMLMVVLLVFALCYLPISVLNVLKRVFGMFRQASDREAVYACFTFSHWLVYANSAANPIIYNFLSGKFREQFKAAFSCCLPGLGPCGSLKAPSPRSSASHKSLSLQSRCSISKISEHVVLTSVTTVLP
Procedure: Human Embryonic Kidney cells 293 (HEK293) cells with forced expression of hOX1R and hOX2R were seeded in a 384-well microplate (Greiner) at 10,000 per well and cultured for 24 hours in high-glucose-DMEM (FujiFilm Corp.-Wako Pure Chemical Industries, Ltd.) containing added 10% FBS (Thermo Scientific) and 1% Penicillin-Streptomycin (FujiFilm Corp.-Wako Pure Chemical Industries, Ltd.). After removing the medium, there was added 40 μL of assay buffer (20 mM HEPES (Sigma-Aldrich Japan, KK.), Hank's Balanced Salt Solution (Gibco), 0.1% BSA (Sigma-Aldrich Japan, KK.), 0.1% Pluronic F-127 (Biotium, Inc.)) containing Calcium 4 dye (Molecular Device Corporation) and 2.5 mM probenecid (Sigma-Aldrich Japan, KK.), and the mixture was incubated for 60 minutes. After further adding 20 μL of assay buffer, 20 μL of assay buffer containing the test compound was added and reaction was initiated. Change in intracellular calcium ion concentration by the reaction was measured based on the fluorescence intensity ratio in terms of the fluorescence value with dual wavelength excitation at 480 nm and 540 nm, using FDSS7000 (Hamamatsu Photonics, K.K.). The test compound was dissolved in DMSO to 10 mM, and diluted with assay buffer to a final concentration of from 3×10^−10 M to 1×10^−7 M (DMSO final concentration of 0.1%). […]

Structure (SMILES)	sleep latency ([1]; 0.3 mg/kg oral)	sleep latency ([1]; 1 mg/kg oral, significant)	sleep latency ([1]; 3 mg/kg oral, significant)	sleep latency ([2]; 1 mg/kg oral)	sleep latency ([2]; 3 mg/kg oral, significant)	sleep latency ([2]; 10 mg/kg oral, significant)	Spontaneous movement (% of Control) (Male C57BL/6NCrl mice)	EC50 (hOX1R)	DREM latency ([1]; 0.3 mg/kg oral, significant)	DREM latency ([1]; 1 mg/kg oral, significant)	DREM latency ([1]; 3 mg/kg oral, significant)
CO[C@@H]1CN(c2ncc(F)cn2)CC[C@@H]1[C@@H]1C[C@H]2CC[C@@H](C1)N2[C@@H](C(N)=O)C1CC1 [Example 1, (2R)-2-cyclopropyl-2-{(1R,3S,5S)-3-[(3S,4R)-1-(5-fluoropyrimidin-2-yl)-3-methoxypiperidin-4-yl]-8-azabicyclo[3.2.1]octan-8-yl}acetamide]	0.31 h	0.64 h	2.42 h	–	–	–	–	–	–	–	–
CO[C@@H]1CN(c2ncc(F)cn2)CC[C@@H]1[C@@H]1C[C@H]2CC[C@@H](C1)N2[C@@H](C(N)=O)C1CC1 [Compound (I), (2R)-2-cyclopropyl-2-{(1R,3S,5S)-3-[(3S,4R)-1-(5-fluoropyrimidin-2-yl)-3-methoxypiperidin-4-yl]-8-azabicyclo[3.2.1]octan-8-yl}acetamide]	–	–	–	0.28 h	0.44 h	2.07 h	865 % of Control	> 100 nM	1.50 h	2.26 h	4.00 h

Source: US20250051322A1, “CRYSTAL OF S[…], SALTS OF S[…], AND CRYSTALS THEREOF” (Eisai R&D Management Co., Ltd., priority 2022, published 2025)
